Data published in PMC6960228, “Ethoxysanguinarine, a Novel Direct Activator of AMP-Activated Protein Kinase, Induces Autophagy and Exhibits Therapeutic Potential in Breast Cancer Cells” (Frontiers in Pharmacology, 2020).

How the values were obtained:
[1] = test system: MCF-10A; assay: MTT cytotoxicity assay; format: cell-based, human
Source text: Human BC cell lines MCF-7, MDA-MB-231, DMA-MB-436, SK-BR3, MDA-MB-468, MDA-MB-453, and MDA-MB-435S and non-tumorigenic MCF-10A human mammary epithelial cells were obtained from American Type Culture Collection (ATCC; Manassas, VA, USA). MCF-7, SK-BR3, MDA-MB-231, and MDA-MB-436 cells were maintained in Dulbecco’s modified Eagle’s medium (DMEM; high glucose; Gibco; Thermo Fisher Scientific, Inc., Waltham, MA, USA) supplemented with 10% fetal bovine serum (FBS; HyClone; Logan, UT, USA) and antibiotics and incubated in a humidified atmosphere with 5% CO2 at 37°C. MDA-MB-468, MDA-MB-453, and MDA-MB-435S cells were maintained in Leibovitz’s L-15 (Gibco) supplemented with 10% FBS and antibiotics and incubated in a humidified atmosphere without CO2 at 37°C. MCF-10A cells were maintained in DMEM/F12 medium containing 5% horse serum (HS), insulin ([…]), epidermal growth factor (EGF, 20 ng/mL), choleratoxin ([…]), hydrocortisone ([…]), penicillin (50 U/mL), and streptomycin (50 U/mL), and incubated in a humidified atmosphere with CO2 at 37°C.
Cells were seeded into 96-well plate and pre-cultured for 24 h, then treated with Eth for 24. Cell cytotoxicity was determined by MTT assay. […]

[2] = test system: AMPK; assay: AMPK activity assay (CycLex kit) in treated cells; format: cell-based, human; settings: MCF-7, MDA-MB-231, and MDA-MB-436 cells treated with Eth
Protocol: AMPK kinase activity was assay was performed by AMPK kinase activity kit which was purchased from CycLex Co., Ltd. (Cat#CY-1182). Absorbance was measured at 450 nm.
Next we determined whether Eth modulates the activity of the AMPK kinase. For this purpose, MCF-7, MDA-MB-231, and MDA-MB-436 cells were treated with Eth and incubated for different time periods (1, 6, 12, and 24 h).
Figure 4 Eth is a direct activator of AMPK. (A): MCF-7, MDA-MB-231, or MDA-MB-436 cells were treated with increasing concentrations of Eth for 24 h, and AMPK activity assay was performed. (B): The binding mode of Eth docked into AMPK. (C): The binding mode of Eth docked into AMPK. α subunit is green, β subunit is cyan, γ subunit is magenta and Eth is gold. (D): Details of the binding site of Eth in the ADaM site of AMPK. The main residues involved in drug interactions are shown as labeled green sticks. α subunit is green, β subunit is cyan. The pSER-108 was shown in stick and colored by gold. (E) The interaction pattern of Eth with the residues. (F): The 2D representation of the AMPK crystal structure in complex with Eth. (G): Chemical structure of Eth intermediate and Biotin-labeled Eth. (H): Viability of MCF-7, MDA-MB-231 or MDA-MB-436 cells exposed to Biotin-Eth as determined by MTT assay. […]

[3] = Body weight of xenografted mice; format: in vivo, nude mice; settings: i.p. 2 mg/kg four times a week for 4 weeks
Protocol: Female nude immunodeficient mice (nu/nu) (weighing ~16 g, 5-week-old) were purchased from Hunan SJA Laboratory Animal Co., Ltd. (Changsha, China), and maintained under specific pathogen-free conditions. Mice were given free access to sterile water and to a standard diet, and maintained under controlled conditions of temperature (22–24°C), humidity (40–70%), and light (12 h light-dark cycles). The present study was approved by Animal Ethics Committee of Hubei University of Medicine. The mice were subcutaneously injected with human BC MDA-MB-231 cells (5 × 10^6 cells which were suspended in 100 μL DMEM) into the right flank of each mouse. Treatments started when tumors reached a palpable size (0.5 cm in diameter). Mice were randomly divided into the following two groups: control group (vehicle; 0.8% DMSO, 12% cremophor, and 8% ethanol in normal saline; n = 8) and Eth-treated group (intraperitoneal injection of […] Eth; n = 8). The mice were treated 5 times per week for a total of […]. Caliper measurements of the longest perpendicular tumor diameters were performed twice a week to estimate the tumor volume, using the following formula: 4π/3 × (width/2)^2 × (length/2), representing the three-dimensional volume of an ellipse. Animals were sacrificed when tumors reached 1.5 cm or if the mice appeared moribund to prevent unnecessary morbidity to the mice. […]

[4] = test system: MCF-7 xenografted and MDA-MB-231 xenografted murine models; assay: Xenograft studies; format: in vivo, nude mice
Protocol: Female nude immunodeficient mice (nu/nu) (weighing ~16 g, 5-week-old) were purchased from Hunan SJA Laboratory Animal Co., Ltd. (Changsha, China), and maintained under specific pathogen-free conditions. Mice were given free access to sterile water and to a standard diet, and maintained under controlled conditions of temperature (22–24°C), humidity (40–70%), and light (12 h light-dark cycles). The present study was approved by Animal Ethics Committee of Hubei University of Medicine. The mice were subcutaneously injected with human BC MDA-MB-231 cells (5 × 10^6 cells which were suspended in 100 μL DMEM) into the right flank of each mouse. Treatments started when tumors reached a palpable size (0.5 cm in diameter). Mice were randomly divided into the following two groups: control group (vehicle; 0.8% DMSO, 12% cremophor, and 8% ethanol in normal saline; n = 8) and Eth-treated group (intraperitoneal injection of […] Eth; n = 8). The mice were treated 5 times per week for a total of […]. Caliper measurements of the longest perpendicular tumor diameters were performed twice a week to estimate the tumor volume, using the following formula: 4π/3 × (width/2)^2 × (length/2), representing the three-dimensional volume of an ellipse. Animals were sacrificed when tumors reached 1.5 cm or if the mice appeared moribund to prevent unnecessary morbidity to the mice.
To determine the anti-tumor effect of Eth on BC in vivo, MCF-7 xenografted and MDA-MB-231 xenografted murine models were generated. Once the tumors grew to a measurable size, each group was administered with vehicle (MCF-7 = 8, MDA-MB-231 = 8) or Eth (MCF-7 = 8; MDA-MB-231 = 8) i.p. at 2 mg/kg four times a week for 4 weeks. The tumor-bearing mice were humanely killed when their tumors reached 1.5 cm in diameter or when paralysis or major compromise in their quality of life occurred. […]
(A–B): Murine models were treated with vehicle, Eth (2 mg/kg) and the tumor volumes were calculated twice a week. **P < 0.01. […] (H–I): The expressions of LC3-II, AMPKα, and pAMPKα in xenograft tumor tissues were analyzed by western blot. […]

CCOC1c2c(ccc3c2OCO3)-c2ccc3cc4c(cc3c2N1C)OCO4 (stereo not shown) [Eth, Ethoxysanguinarine]
IC50 ([1]; Homo sapiens, MCF-10A, 24 h, MTT assay, means ± SD of quadruplicate determinations): 12.3 ± 2.05 µM | sensitivity to Eth compared with the BC cell lines ([1]; normal human mammary epithelial cell line MCF-10A): less sensitive | AMPK activity [2]: robust increase in AMPK activity | body weight of the mice [3]: did not significantly reduce the body weight | tumor weight ([4]; i.p. 2 mg/kg four times a week for 4 weeks): significantly reduced the tumor weight | tumor growth compared with vehicle control ([4]; i.p. 2 mg/kg four times a week for 4 weeks, P < 0.05): efficiently repressed tumor growth | expression levels of pAMPK and LC-3II in tumor specimens ([4]; western blot of xenograft tumors): upregulated
